Key:
Format in all cases: functional
UACC-62 [1] = test: Cytotoxicity against human UACC62 cells assessed as cell growth at 1 uM after 48 hrs by sulforhodamine B assay relative to control; settings: UACC-62, 48 h, read-out: Activity
HL-60(TB) = test: Cytotoxicity against human HL-60(TB) cells assessed as cell growth at 1 uM after 48 hrs by sulforhodamine B assay relative to control; settings: HL-60, 48 h, read-out: Activity
RXF 393 = test: Cytotoxicity against human RXF393 cells assessed as cell growth at 0.01 uM after 48 hrs by sulforhodamine B assay relative to control; settings: RXF 393, 48 h, read-out: Activity
OVCAR-4 = test: Cytotoxicity against human OVCAR4 cells assessed as cell growth at 10 uM after 48 hrs by sulforhodamine B assay relative to control; settings: OVCAR-4, 48 h, read-out: Activity
K562 = test: Cytotoxicity against human K562 cells assessed as growth inhibition after 48 hrs by sulforhodamine B assay; settings: K562, 48 h
MDA-MB-468 [2] = test: Cytotoxicity against human MDA-MB-468 cells assessed as cell growth at 0.01 uM after 48 hrs by sulforhodamine B assay relative to control; settings: MDA-MB-468, 48 h, read-out: Activity
HOP-62 [3] = test: Cytotoxicity against human HOP62 cells assessed as cell growth at 0.1 uM after 48 hrs by sulforhodamine B assay relative to control; settings: HOP-62, 48 h, read-out: Activity
SK-MEL-5 = test: Cytotoxicity against human SK-MEL-5 cells assessed as growth inhibition after 48 hrs by sulforhodamine B assay; settings: SK-MEL-5, 48 h
HT-29 [4] = test: Cytotoxicity against human HT-29 cells assessed as cell growth at 0.01 uM after 48 hrs by sulforhodamine B assay relative to control; settings: HT-29, 48 h, read-out: Activity
MDA-MB-231 [5] = test: Cytotoxicity against human MDA-MB-231 cells assessed as cell growth at 100 uM after 48 hrs by sulforhodamine B assay relative to control; settings: MDA-MB-231, 48 h, read-out: Activity
A549 = test: Cytotoxicity against human A549/ATCC cells assessed as cell growth at 10 uM after 48 hrs by sulforhodamine B assay relative to control; settings: A549, 48 h, read-out: Activity
MDA-MB-231 [6] = test: Cytotoxicity against human MDA-MB-231 cells assessed as growth inhibition after 48 hrs by sulforhodamine B assay; settings: MDA-MB-231, 48 h
ACHN = test: Cytotoxicity against human ACHN cells assessed as cell growth at 0.01 uM after 48 hrs by sulforhodamine B assay relative to control; settings: read-out: Activity
OVCAR-8 = test: Cytotoxicity against human OVCAR8 cells assessed as cell growth at 0.1 uM after 48 hrs by sulforhodamine B assay relative to control; settings: OVCAR-8, 48 h, read-out: Activity
M14 = test: Cytotoxicity against human M14 cells assessed as cell growth at 1 uM after 48 hrs by sulforhodamine B assay relative to control; settings: M14, 48 h, read-out: Activity
NCI-H522 = test: Cytotoxicity against human NCI-H522 cells assessed as cell growth at 1 uM after 48 hrs by sulforhodamine B assay relative to control; settings: NCI-H522, 48 h, read-out: Activity
MDA-MB-231 [7] = test: Cytotoxicity against human MDA-MB-231 cells assessed as cell growth at 0.1 uM after 48 hrs by sulforhodamine B assay relative to control; settings: MDA-MB-231, 48 h, read-out: Activity
SK-MEL-28 = test: Cytotoxicity against human SK-MEL-28 cells assessed as cell growth at 0.01 uM after 48 hrs by sulforhodamine B assay relative to control; settings: SK-MEL-28, 48 h, read-out: Activity
DU-145 = test: Cytotoxicity against human DU145 cells assessed as cell growth at 0.1 uM after 48 hrs by sulforhodamine B assay relative to control; settings: DU-145, 48 h, read-out: Activity
SF-268 [8] = test: Cytotoxicity against human SF268 cells assessed as cell growth at 100 uM after 48 hrs by sulforhodamine B assay relative to control; settings: SF-268, 48 h, read-out: Activity
MDA-MB-231 [9] = test: Cytotoxicity against human MDA-MB-231 cells assessed as cell growth at 10 uM after 48 hrs by sulforhodamine B assay relative to control; settings: MDA-MB-231, 48 h, read-out: Activity
NCI/ADR-RES = test: Cytotoxicity against human NCI/ADR-RES cells assessed as cell growth at 10 uM after 48 hrs by sulforhodamine B assay relative to control; settings: read-out: Activity
SF-539 [10] = test: Cytotoxicity against human SF539 cells assessed as cell growth at 1 uM after 48 hrs by sulforhodamine B assay relative to control; settings: SF-539, 48 h, read-out: Activity
Hs-578T = test: Cytotoxicity against human Hs 578T cells assessed as cell growth at 0.1 uM after 48 hrs by sulforhodamine B assay relative to control; settings: read-out: Activity
MDA-MB-435 = test: Cytotoxicity against human MDA-MB-435 cells assessed as cell growth at 100 uM after 48 hrs by sulforhodamine B assay relative to control; settings: MDA-MB-435, 48 h, read-out: Activity
HCC 2998 = test: Cytotoxicity against human HCC2998 cells assessed as cell growth at 100 uM after 48 hrs by sulforhodamine B assay relative to control; settings: HCC 2998, 48 h, read-out: Activity
MDA-MB-468 [11] = test: Cytotoxicity against human MDA-MB-468 cells assessed as cell growth at 100 uM after 48 hrs by sulforhodamine B assay relative to control; settings: MDA-MB-468, 48 h, read-out: Activity
Malme-3M = test: Cytotoxicity against human MALME-3M cells assessed as cell growth at 1 uM after 48 hrs by sulforhodamine B assay relative to control; settings: read-out: Activity
UACC-62 [12] = test: Cytotoxicity against human UACC62 cells assessed as cell growth at 10 uM after 48 hrs by sulforhodamine B assay relative to control; settings: UACC-62, 48 h, read-out: Activity
HT-29 [13] = test: Cytotoxicity against human HT-29 cells assessed as growth inhibition after 48 hrs by sulforhodamine B assay; settings: HT-29, 48 h
SF-539 [14] = test: Cytotoxicity against human SF539 cells assessed as cell growth at 10 uM after 48 hrs by sulforhodamine B assay relative to control; settings: SF-539, 48 h, read-out: Activity
RPMI-8226 = test: Cytotoxicity against human RPMI8226 cells assessed as cell growth at 0.1 uM after 48 hrs by sulforhodamine B assay relative to control; settings: RPMI-8226, 48 h, read-out: Activity
HOP-62 [15] = test: Cytotoxicity against human HOP62 cells assessed as cell growth at 100 uM after 48 hrs by sulforhodamine B assay relative to control; settings: HOP-62, 48 h, read-out: Activity
SF-268 [16] = test: Cytotoxicity against human SF268 cells assessed as cell growth at 1 uM after 48 hrs by sulforhodamine B assay relative to control; settings: SF-268, 48 h, read-out: Activity
SW-620 = test: Cytotoxicity against human SW620 cells assessed as cell growth at 1 uM after 48 hrs by sulforhodamine B assay relative to control; settings: SW-620, 48 h, read-out: Activity
SF-268 [17] = test: Cytotoxicity against human SF268 cells assessed as cell growth at 10 uM after 48 hrs by sulforhodamine B assay relative to control; settings: SF-268, 48 h, read-out: Activity

With `COc1ccc(-c2cc(/C=C/C(=O)c3ccc(N)cc3)[nH]n2)cc1` the growth at 1 µM (UACC-62 [1]) was 79%, the growth at 1 µM (HL-60(TB)) was 61% and the growth at 0.01 µM (RXF 393) was 95%. It also gave a growth at 10 µM (OVCAR-4) of -6%, a GI50 (K562) of 1420 nM and an LC50 (concentration killing 50% of cells) (K562) of 69.7 µM. It also gave a TGI (K562) of 11.6 µM, a growth at 0.01 µM (MDA-MB-468 [2]) of 103% and a growth at 0.1 µM (HOP-62 [3]) of 100%. For the same compound, the GI50 (SK-MEL-5) was 2.71 µM, the LC50 (concentration killing 50% of cells) (SK-MEL-5) was 30.4 µM and the TGI (SK-MEL-5) was 9.25 µM. It also gave a growth at 0.01 µM (HT-29 [4]) of 97%, a growth at 100 µM (MDA-MB-231 [5]) of -65% and a growth at 10 µM (A549) of 1%. It also gave a GI50 (MDA-MB-231 [6]) of 2140 nM, an LC50 (MDA-MB-231 [6]) of 55.5 µM and a TGI (MDA-MB-231 [6]) of 8.29 µM. It also gave a growth at 0.01 µM (ACHN) of 103%, a growth at 0.1 µM (OVCAR-8) of 100% and a growth at 1 µM (M14) of 105%. It also gave a growth at 1 µM (NCI-H522) of 61%, a growth at 0.1 µM (MDA-MB-231 [7]) of 89% and a growth at 0.01 µM (SK-MEL-28) of 98%. The growth at 0.1 µM (DU-145) was 100%, the growth at 100 µM (SF-268 [8]) was -61% and the growth at 10 µM (MDA-MB-231 [9]) was -7%. For the same compound, the growth at 10 µM (NCI/ADR-RES) was 9%, the growth at 1 µM (SF-539 [10]) was 72% and the growth at 0.1 µM (Hs-578T) was 97%. The growth at 100 µM (MDA-MB-435) was -75%, the growth at 100 µM (HCC 2998) was -93% and the growth at 100 µM (MDA-MB-468 [11]) was -51%. For the same compound, the growth at 1 µM (Malme-3M) was 87%, the growth at 10 µM (UACC-62 [12]) was -89% and the GI50 (HT-29 [13]) was 2750 nM. For the same compound, the LC50 (HT-29 [13]) was 74.1 µM, the TGI (HT-29 [13]) was 8.11 µM and the growth at 10 µM (SF-539 [14]) was -61%. The growth at 0.1 µM (RPMI-8226) was 100%, the growth at 100 µM (HOP-62 [15]) was -60% and the growth at 1 µM (SF-268 [16]) was 78%. For the same compound, the growth at 1 µM (SW-620) was 72% and the growth at 10 µM (SF-268 [17]) was -29%.
In the case of `COc1cc(C(=O)/C=C/c2cc(-c3ccc4c(c3)OCO4)n[nH]2)cc(OC)c1OC`, the growth at 1 µM (UACC-62 [1]) is reported as 89%, the growth at 1 µM (HL-60(TB)) is reported as 85% and the growth at 0.01 µM (RXF 393) is reported as 93%. It also gave a growth at 10 µM (OVCAR-4) of -28%, a GI50 (K562) of 2170 nM and an LC50 (concentration killing 50% of cells) (K562) greater than 100 µM. For the same compound, the TGI (K562) was greater than 100 µM, the growth at 0.01 µM (MDA-MB-468 [2]) was 89% and the growth at 0.1 µM (HOP-62 [3]) was 95%. The GI50 (SK-MEL-5) was 3.32 µM, the LC50 (concentration killing 50% of cells) (SK-MEL-5) was 37.7 µM and the TGI (SK-MEL-5) was 13.3 µM. The growth at 0.01 µM (HT-29 [4]) was 103%, the growth at 100 µM (MDA-MB-231 [5]) was -97% and the growth at 10 µM (A549) was -22%. For the same compound, the GI50 (MDA-MB-231 [6]) was 2080 nM, the LC50 (MDA-MB-231 [6]) was 23.8 µM and the TGI (MDA-MB-231 [6]) was 6.23 µM. The growth at 0.01 µM (ACHN) was 102%, the growth at 0.1 µM (OVCAR-8) was 100% and the growth at 1 µM (M14) was 96%. For the same compound, the growth at 1 µM (NCI-H522) was 80%, the growth at 0.1 µM (MDA-MB-231 [7]) was 98% and the growth at 0.01 µM (SK-MEL-28) was 100%. The growth at 0.1 µM (DU-145) was 99%, the growth at 100 µM (SF-268 [8]) was -89% and the growth at 10 µM (MDA-MB-231 [9]) was -22%. It also gave a growth at 10 µM (NCI/ADR-RES) of 2%, a growth at 1 µM (SF-539 [10]) of 68% and a growth at 0.1 µM (Hs-578T) of 90%. The growth at 100 µM (MDA-MB-435) was -88%, the growth at 100 µM (HCC 2998) was -95% and the growth at 100 µM (MDA-MB-468 [11]) was -80%. It also gave a growth at 1 µM (Malme-3M) of 83%, a growth at 10 µM (UACC-62 [12]) of -62% and a GI50 (HT-29 [13]) of 2450 nM. The LC50 (HT-29 [13]) was greater than 100 µM, the TGI (HT-29 [13]) was 6.53 µM and the growth at 10 µM (SF-539 [14]) was -75%. The growth at 0.1 µM (RPMI-8226) was 93%, the growth at 100 µM (HOP-62 [15]) was -91% and the growth at 1 µM (SF-268 [16]) was 89%. It also gave a growth at 1 µM (SW-620) of 78% and a growth at 10 µM (SF-268 [17]) of -12%.

Reference: ChEMBL document CHEMBL4138123, “Design, synthesis and biological evaluation of novel pyrazolochalcones as potential modulators of PI3K/Akt/mTOR pathway and inducers of apoptosis in breast cancer cells” (Eur J Med Chem, 2017)
